In patent US6706664B1, “Benzoxazole compounds, process for the preparation thereof and herbicides” (UBE Industries, Ltd., priority 1999, dated 2004):

What was measured:
Parameters in all cases: key: 0: normal development; 1: Less damaged; 2: Slightly damaged; 3: Moderately damaged; 4: Severely damaged; 5: All killed
[1] = tested on: green foxtail; experiment: Foliar spread test for upland field; assay type: in vivo, Setaria viridis; details: foliar spray 500 ppm, 3 weeks, rank vs non-treated
From the text: (§1) (0: normal development, 1: Less damaged, 2: Slightly damaged, 3: Moderately damaged, 4: Severely damaged, 5: All killed).
(§2) Wagner pots, each having an area of 1/5000 are, were packed with volcanic ash soil and then each seed of corn, soybean, cotton, wheat, solgum, sugar beat, Large crabgrass, barnyardgrass, green foxtail, blackgrass, annual bluegrass, common lambsquartes, livid amaranth, velvetleaf and morning glory was planted, covered with soil and grown in a glass house at an average temperature of […] for about 2 weeks.
(§3) Each wettable powder of the desired compounds (I) shown in Table 1 prepared in accordance with Example 2 was diluted to 500 ppm with water containing a surfactant (0.5%) and then uniformly sprayed on the above respective plants.
(§4) After these plants were controlled in a glass house at an average temperature of 25° C. for 3 weeks, the herbicidal effects thereof were investigated.
(§5) The herbicidal effects were evaluated according to the evaluation method described in the above (1).

[2] = tested on: Large crabgrass; experiment: Soil treatment test for upland field; assay type: in vivo, Digitaria adscendens; details: 500 g/ha, glass house 25° C., 3 weeks
How it was run: (§6)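 Soil treatment, 500 g/ha, sprayed onto soil surface after sowing; alluvial Ube soil; 0.05% surfactant in diluent; glasshouse, avg 25° C, 3 wk; visual score 0–5 (5 = all killed).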

[3] = tested on: velvetleaf; experiment: Soil treatment test for upland field; assay type: in vivo, Abutilon theophrasti; details: 500 g/ha, glass house 25° C., 3 weeks
How it was run: as §6

[4] = tested on: green foxtail; experiment: Soil treatment test for upland field; assay type: in vivo, Setaria viridis; details: 500 g/ha, glass house 25° C., 3 weeks
How it was run: as §6

[5] = tested on: livid amaranth; experiment: Foliar spread test for upland field; assay type: in vivo, Amaranthus lividus; details: foliar spray 500 ppm, 3 weeks, rank vs non-treated
From the text: as §1, §2, §3, §4, §5

[6] = tested on: blackgrass; experiment: Soil treatment test for upland field; assay type: in vivo, Alopecurus aegualis; details: 500 g/ha, glass house 25° C., 3 weeks
How it was run: as §6

[7] = tested on: annual bluegrass; experiment: Soil treatment test for upland field; assay type: in vivo, Poa annua; details: 500 g/ha, glass house 25° C., 3 weeks
How it was run: as §6

[8] = tested on: common lambsquartes; experiment: Foliar spread test for upland field; assay type: in vivo, Chenopodium album; details: foliar spray 500 ppm, 3 weeks, rank vs non-treated
From the text: as §1, §2, §3, §4, §5

[9] = tested on: cotton; experiment: Soil treatment test for upland field; assay type: in vivo; details: 500 g/ha, glass house 25° C., 3 weeks
How it was run: as §6

[10] = tested on: solgum; experiment: Soil treatment test for upland field; assay type: in vivo; details: 500 g/ha, glass house 25° C., 3 weeks
How it was run: as §6

[11] = tested on: sugar beat; experiment: Soil treatment test for upland field; assay type: in vivo; details: 500 g/ha, glass house 25° C., 3 weeks
How it was run: as §6

[12] = tested on: wheat; experiment: Soil treatment test for upland field; assay type: in vivo; details: 500 g/ha, glass house 25° C., 3 weeks
How it was run: as §6

[13] = tested on: corn; experiment: Soil treatment test for upland field; assay type: in vivo; details: 500 g/ha, glass house 25° C., 3 weeks
How it was run: as §6

[14] = tested on: soybean; experiment: Soil treatment test for upland field; assay type: in vivo; details: 500 g/ha, glass house 25° C., 3 weeks
How it was run: as §6

[15] = tested on: velvetleaf; experiment: Foliar spread test for upland field; assay type: in vivo, Abutilon theophrasti; details: foliar spray 500 ppm, 3 weeks, rank vs non-treated
From the text: as §1, §2, §3, §4, §5

[16] = tested on: common lambsquartes; experiment: Soil treatment test for upland field; assay type: in vivo, Chenopodium album; details: 500 g/ha, glass house 25° C., 3 weeks
How it was run: as §6

[17] = tested on: solgum; experiment: Foliar spread test for upland field; assay type: in vivo; details: foliar spray 500 ppm, 3 weeks, rank vs non-treated
From the text: as §1, §2, §3, §4, §5

[18] = tested on: sugar beat; experiment: Foliar spread test for upland field; assay type: in vivo; details: foliar spray 500 ppm, 3 weeks, rank vs non-treated
From the text: as §1, §2, §3, §4, §5

[19] = tested on: wheat; experiment: Foliar spread test for upland field; assay type: in vivo; details: foliar spray 500 ppm, 3 weeks, rank vs non-treated
From the text: as §1, §2, §3, §4, §5

[20] = tested on: corn; experiment: Foliar spread test for upland field; assay type: in vivo; details: foliar spray 500 ppm, 3 weeks, rank vs non-treated
From the text: as §1, §2, §3, §4, §5

[21] = tested on: soybean; experiment: Foliar spread test for upland field; assay type: in vivo; details: foliar spray 500 ppm, 3 weeks, rank vs non-treated
From the text: as §1, §2, §3, §4, §5

[22] = tested on: livid amaranth; experiment: Soil treatment test for upland field; assay type: in vivo, Amaranthus lividus; details: 500 g/ha, glass house 25° C., 3 weeks
How it was run: as §6

[23] = tested on: morning glory; experiment: Foliar spread test for upland field; assay type: in vivo, Ipomoea spps.; details: foliar spray 500 ppm, 3 weeks, rank vs non-treated
From the text: as §1, §2, §3, §4, §5

[24] = tested on: barnyardgrass; experiment: Soil treatment test for upland field; assay type: in vivo, Echinochloa crusgalli; details: 500 g/ha, glass house 25° C., 3 weeks
How it was run: as §6

[25] = tested on: monochoria; experiment: Herbicidal test for paddy field; assay type: in vivo, Monochoria vaginalis; details: paddy field pot, 500 g/ha dropwise at 1.5 leaf stage of barnyardgrass, 3 weeks, rank vs non-treated
Procedure: (§7) Wagner pots, each having an area of 1/5000 are, were packed with Ube soil (alluvial soil) and planted with seeds or tubers of young rice plant, barnyardgrass, bulrush, flat sedge and monochoria. Then, the pots were filled with water to a depth of 3 cm.
(§8) Each wettable powder of the desired compounds (I) shown in Table 1 prepared in accordance with Example 2 was diluted with water containing a surfactant (0.05%) and subjected to dropwise addition treatment by using pipet so that an effective concentration of the compound (I) in each herbicide became 500 g/ha at 1.5 leaf stage of barnyardgrass.
(§9) These plants were controlled in a glass house at an average temperature of 25° C. for 3 weeks, and then herbicidal effects thereof were investigated.
(§10) The herbicidal effects are evaluated according to the following 6 ranks as compared with non-treated district.
as §1

[26] = tested on: young rice plant; experiment: Herbicidal test for paddy field; assay type: in vivo; details: paddy field pot, 500 g/ha dropwise at 1.5 leaf stage of barnyardgrass, 3 weeks, rank vs non-treated
Procedure: as §7, §8, §9, §10, §1

[27] = tested on: bulrush; experiment: Herbicidal test for paddy field; assay type: in vivo, Scrips juncoides; details: paddy field pot, 500 g/ha dropwise at 1.5 leaf stage of barnyardgrass, 3 weeks, rank vs non-treated
Procedure: as §7, §8, §9, §10, §1

[28] = tested on: cotton; experiment: Foliar spread test for upland field; assay type: in vivo; details: foliar spray 500 ppm, 3 weeks, rank vs non-treated
From the text: as §1, §2, §3, §4, §5

[29] = tested on: Large crabgrass; experiment: Foliar spread test for upland field; assay type: in vivo, Digitaria adscendens; details: foliar spray 500 ppm, 3 weeks, rank vs non-treated
From the text: as §1, §2, §3, §4, §5

[30] = tested on: barnyardgrass; experiment: Herbicidal test for paddy field; assay type: in vivo, Echinochloa crusgalli; details: paddy field pot, 500 g/ha dropwise at 1.5 leaf stage of barnyardgrass, 3 weeks, rank vs non-treated
Procedure: as §7, §8, §9, §10, §1

[31] = tested on: blackgrass; experiment: Foliar spread test for upland field; assay type: in vivo, Alopecurus aegualis; details: foliar spray 500 ppm, 3 weeks, rank vs non-treated
From the text: as §1, §2, §3, §4, §5

[32] = tested on: annual bluegrass; experiment: Foliar spread test for upland field; assay type: in vivo, Poa annua; details: foliar spray 500 ppm, 3 weeks, rank vs non-treated
From the text: as §1, §2, §3, §4, §5

SMILES	Effects Green foxtail [1]	Effects Large crabgrass [2]	Effects Velvetleaf [3]	Effects Green foxtail [4]	Effects Livid amaranth [5]	Effects Annual bluegrass [7]	Effects Common lambsquarters [8]	Effects Cotton [9]	Effects Solgum [10]	Effects Sugar beat [11]	Effects Wheat [12]	Effects Corn [13]	Effects Soybean [14]	Effects Velvetleaf [15]	Effects Common lambsquarters [16]	Effects Solgum [17]	Effects Sugar beat [18]	Effects Wheat [19]	Effects Corn [20]	Effects Livid amaranth [22]	also measured
CCCC(Oc1ccc(F)c(C(F)(F)F)c1)c1nc2cc(C#N)c(C#N)cc2o1 (stereo not drawn) [Compound 318]	5	2	5	4	5	4	3	0	0	5	0	0	0	2	5	1	5	1	1	5	Effects Blackgrass [6]: 2; Effects Soybean [21]: 2
CCCC(Oc1ccc(F)c(C(F)(F)F)c1)c1nc2cc(S(C)(=O)=O)c(C)cc2o1 (stereo not drawn) [Compound 488]	–	5	5	5	5	5	3	1	0	5	0	0	0	3	4	1	5	1	1	5	Effects Morning glory [23]: 2; Effects Barnyardgrass [24]: 2; Effects Soybean [21]: 2
CCC(Oc1cccc(C#N)c1)c1nc2cc(S(C)(=O)=O)c(C)cc2o1 (stereo not drawn) [Compound 491]	2	–	–	–	4	–	5	–	–	–	–	–	–	3	–	1	4	1	1	–	Effect Monochoria [25]: 5; Effects Morning glory [23]: 3; Effect Young rice plant [26]: 0; Effect Bulrush [27]: 3; Effects Cotton [28]: 2
CCC(Oc1ccc(F)c(C(F)(F)F)c1)c1nc2cc(F)c(Cl)cc2o1 (stereo not drawn) [Compound 493]	5	5	5	5	5	5	5	1	2	5	2	2	2	2	4	1	5	1	2	5	Effects Large crabgrass [29]: 2; Effect Monochoria [25]: 5; Effect Barnyardgrass [30]: 5; Effects Blackgrass [6]: 4; Effects Barnyardgrass [24]: 4; Effects Cotton [28]: 2
CCC(Oc1cccc(C(F)(F)F)c1)c1nc2cc(F)c(Cl)cc2o1 (stereo not drawn) [Compound 496]	4	5	5	5	5	5	5	1	1	5	1	0	0	3	5	2	5	2	2	5	Effects Large crabgrass [29]: 3; Effects Blackgrass [31]: 3; Effects Blackgrass [6]: 5; Effects Annual bluegrass [32]: 2; Effects Barnyardgrass [24]: 3
